# Assay results from patent US3937838A, “Orally active bronchospasmolytic compounds and their preparation” (priority 1966, dated 1976).
# Read-outs that look alike come from different tables or passages of the source.
# Columns and labels:
# [1] = system: isolated guinea pig trachea; assay: Bronchospasmolytic effect in vitro, isolated guinea pig trachea (Example 7a); settings: Table 1, six experiments
# Experimental: The trachea from a guinea pig was dissected out and spirally out. It was mounted in a water-jacketed bath (37°C.) in Kreb's solution and aerated with oxygen (95%) and carbon dioxide (5%). Pilocarpine (1 μg/ml) was added. The load was about 2 g and the relaxation was recorded by means of a Grass force displacement transducer and a Grass polygraph model 5. The compound KWD2109 was tested on six preparations in which epinephrine was used as reference.
# [2] = system: bronchospasm induced by histamine aerosol; assay: Protecting effect against histamine aerosol in intact guinea pigs (Example 7c); format: in vivo, guinea pig; settings: for ED50: Cavia porcellus, m ± s.e., read-out: ED50 (protecting 50 per cent of the animals for more than 4 minutes)
# Experimental: The compounds KWD2109 and KWD2025 have been compared in preventing bronchospasm induced by histamine aerosol in guinea pigs.
# The drug was injected intraperitoneally 15 minutes (Table 2) or administered orally 30 minutes (Table 3) before histamine treatment. The dose of the drugs protecting 50 per cent of the animals for more than 4 minutes is denoted "ED50". In untreated animals only 1-2 percent will withstand the histamine aerosol for more than 4 minutes.
# To study the duration of the effect, 2 mg/kg was administered orally to intact guinea pigs at different time intervals before the histamine treatment. Two series each including eleven groups of six animals was studied. The groups were tested in histamine aerosol 10, 20, 30, 40, 50, 60, 120, 180, 240, 300 and 360 minutes after the administration of the compound. The per cent of animals in each group protected more than 4 minutes and more than 10 minutes was determined.
# [3] = system: isolated guinea pig heart; assay: Effect on isolated guinea pig heart, Langendorff (Example 7d)
# Experimental: The isolated guinea pig heart was perfused according to Langendorff. The method used is described by Anden et al. (Acta. Pharmacol. et Toxicol. 21, 247, 1964). Contractions in the heart were recorded by means of a force displacement transducer and aa Grass polygraph Model 7. Epinephrine was used as reference. KWD2109 and KWD2025 were tested on the same preparation. The comparisons of effects were based on dose for 50 percent increase in chronotropic effect and 10 percent increase in inotropic effect.
# [4] = system: isolated guinea pig auricle; assay: Dual bath preparation, effect on left auricle (Example 8a)
# Experimental: The left auricle was dissected out and mounted together with spirally-cut trachea from the same animal in a 100 ml bath in Kreb's solution (37°C.) well aereated with a mixture of oxygen (95%) and carbon dioxide (5%). The auricle was electrically stimulated with square wave pulses from a Techtronic Stimulator (voltage 2-4; duration: 10 m sec; frequency 1 per second). This is, in general, the same procedure described above in Example 5c.
# Using the dual bath preparation, tests were made of the effect on the trachea and auricle of KWD2025 (of the present invention) and of the known drugs KWD2109 and epinephrine. The drug to be tested was added to the bath in the predetermined amount and allowed to act upon the organs for 10 minutes.
# heart rate = assay: Tests on anesthetized cat, heart rate with bronchospasmolytic effect (Example 8b); format: in vivo
# From the text: The relative bronchospasmolytic and cardiovascular effects of compounds can be tested in the method of Konzett & Rossler (see Example 5b above). As has already been described, the test animal is force-ventilated and the effect of various compounds in controlling histamine-induced bronchoconstriction, as reflected by overflow of the forced ventilation in excess of lung capacity, is used as a measure of the bronchospasmolytic effect. Concurrently in the same animal, changes in heart rate and arterial mean pressure can be simultaneously recorded.
# In carrying out this procedure, bronchoconstriction in the test animal is induced by injection of histamine. The ability of KWD2025 and KWD2109 to control the histamine-inducred bronchoconstriction is measured by injecting the test compound 3 minutes before injection of […], and before injection of histamine, the effect of the test compound on the heart rate is recorded.
compound,measurement,setting,value
"Oc1ccc(C(O)CNC2CCC2)cc1O (stereo not drawn) [KWD2109, 1-(3',4'-dihydroxyphenyl)-2-(cyclobutylamino)-ethanol]",bronchospasmolytic effect x epinephrine,[1],8.6 ± 1.7 times
same,ED50,"[2]; ip, 0.25 h, i.p., 15 minutes before histamine-aerosol",0.17 ± 0.02 mg/kg
same,ED50,"[2]; po, 0.5 h, peroral, 30 minutes before histamine-aerosol",0.55 ± 0.14 mg/kg
same,protecting activity relative to KWD2025,[2]; intraperitoneal,3.5 times
same,protecting activity relative to KWD2025,[2]; oral,3.1 times
same,bronchospasmolytic activity relative to KWD2025 after intraperitoneal and oral administration,[2]; summary b256,about 3 times
same,"therapeutic index, bronchospasmolytic effect over effect on the heart (inotropic)",[3]; KWD2025 given index 1.0,0.083
same,effect on force x epinephrine,"[3]; dose for 10 percent increase in inotropic effect, Table 5",5.5 ± 3.2
same,effect on heart rate x epinephrine,"[3]; dose for 50 percent increase in chronotropic effect, Table 4",11.8 ± 6.5
same,effect on auricle relative to epinephrine at doses with same effect on trachea,[4]; equi-effective doses on trachea,of the same order as that of epinephrine
same,effect on force of contraction in auricle in concentrations relaxing the trachea,[4]; same bath,increased the force of contraction in the auricle in concentrations where it relaxed the trachea
same,effect on heart rate at equal bronchospasmolytically effective doses,heart rate,more pronounced effect on the heart rate than did KWD2025
